Measured values reported in patent US9018229B2, “Quinolone compound and pharmaceutical composition” (Otsuka Pharmaceutical Co., Ltd., priority 2008, dated 2015).
Structures can show the parent of a compound that is named as a salt.

Columns and labels:
[1] = system: human neuroblastoma cell lines SH-SY5Y treated with 1-methyl-4-phenylpyridinium (MPP+); experiment: Improvement of mitochondrial dysfunction in MPP+-treated SH-SY5Y cells (mitochondrial oxidation reduction activity, Alamar Blue); format: cell-based; settings: 1.5 mM MPP+, relative to cells in DMSO alone = 100%, read-out: Fluorescence Intensity (%); for activity at 0.01 µg/mL: test compound 0.01 μg/ml; for activity at 0.03 µg/mL: test compound 0.03 μg/ml; for activity at 0.1 µg/mL: test compound 0.1 μg/ml; for activity at 0.3 µg/mL: test compound 0.3 μg/ml; for activity at 1 µg/mL: test compound 1 μg/ml
Experimental: Evaluation of the Improvement of Mitochondrial Dysfunction Using Human Neuroblastoma Cell Lines SH-SY5Y Treated with 1-methyl-4-phenylpyridinium (MPP^+)
In human neuroblastoma cell lines SH-SY5Y in which mitochondrial activity was injured by MPP^+ treatment (Bollimuntha S. et al., J Biol Chem, 280, 2132-2140 (2005) and Shang T. et al., J Biol Chem, 280, 34644-34653 (2005)), the improvement of mitochondrial dysfunction was evaluated on the basis of measurement values for mitochondrial oxidation reduction activity using Alamar Blue fluorescent dye after the compound addition (Nakai M. et al, Exp Neurol, 179, 103-110 (2003)).
The human neuroblastoma cell lines SH-SY5Y were cultured in Dulbecco's Modified Eagle's Medium containing 10% fetal bovine serum (DMEM containing 50 units/ml penicillin and 50 μg/ml streptomycin as antibiotics) at 37° C. in the presence of 5% carbon dioxide. Cells were scattered on a poly-D-lysine-coated 96-well black plate at a concentration of 3−6×10^4 cells/cm^2 (medium amount: 100 μl/well), and cultured in the above medium for two days. Further, the medium was changed to DMEM containing a 1% N2 supplement (N2-DMEM) or to a medium (100 μl/well) in which 1.5 mM MPP^+ was dissolved. The cells were cultured therein for 39 to 48 hours, and then subjected to a mitochondrial oxidation reduction activity measurement system. A sample compound that had been previously dissolved in dimethyl sulfoxide (DMSO) was diluted with N2-DMEM, and added in a volume of 10 μl/well 24 hours before the activity measurement (final compound concentration: 0.01 to 1 μg/ml).
After removal of the medium by suction, a balanced salt solution containing 10% Alamar Blue (154 mM sodium chloride, 5.6 mM potassium chloride, 2.3 mM calcium chloride, 1.0 mM magnesium chloride, 3.6 mM sodium bicarbonate, 5 mM glucose, 5 mM HEPES, pH 7.2) was added in a volume of 100 μl/well, and reacted in an incubator at 37° C. for 1 hour. The fluorescent intensity was detected using a fluorescence detector (a product of Hamamatsu Photonics K.K., excitation wavelength 530 nm, measurement wavelength 580 nm) to thereby measure the mitochondrial oxidation reduction activity.
The fluorescent intensity of the well of the cells cultured in a medium containing MPP^+ and in each of the sample compounds was relatively evaluated based on the 100% fluorescent intensity of the well of the cells cultured in a medium containing DMSO alone (final concentration: 0.1%).

Row | melting point | SMILES | activity at 0.01 µg/mL [1] | activity at 0.03 µg/mL [1] | activity at 0.1 µg/mL [1] | activity at 0.3 µg/mL [1] | activity at 1 µg/mL [1]
1 | 172 to 174 °C | CCCOc1cc2ccccc2c2c(=O)c(-c3ccc(OC)cc3)c[nH]c12 |  |  |  |  | 
2 | 206 to 208 °C | CCCOc1ccc(F)c2c(=O)c(-c3ccc(OC)cc3)cn(CCN3CCOCC3)c12 |  |  |  |  | 
3 | 135 to 137 °C | CCCOc1cc2c(c3c(=O)c(-c4ccc(OC)cc4)cn(CCCN4CCOCC4)c13)CCC2 |  |  |  |  | 
4 | 252 to 254 °C | CCCOc1cc2ccccc2c2c(=O)c(-c3ccoc3)c[nH]c12 |  |  |  |  | 
5 | 208 to 210 °C | CCCOc1ccc(F)c2c(=O)c(-c3ccc(Cl)cc3Cl)cn(COP(=O)([O-])[O-])c12.[Na+].[Na+] |  |  |  |  | 
6 | 165 to 167 °C | CCCOc1cc2ccccc2c2c(=O)c(-c3ccoc3)cn(C)c12 |  |  |  |  | 
7 | 201 to 203 °C | CCCOc1cc2c(c3c(=O)c(-c4ccc(OC)cc4)cn(CC(=O)NCCN4CCOCC4)c13)OCCC2 |  |  |  |  | 
8 | 139 to 141 °C | CCCOc1ccc(F)c2c(=O)c(-c3ccc(OC)cc3)cn(CC(=O)NCCN3CCOCC3)c12 |  |  |  |  | 
9 | 218 to 220 °C | CCCOc1ccc(F)c2c(=O)c(-c3ccc(OC)cc3)cn(CC(=O)N(C)CCN3CCOCC3)c12 |  |  |  |  | 
10 | 226 to 228 °C | CCCOc1ccc(F)c2c(=O)c(-c3ccc(OC)cc3)cn(CC(=O)NC3CCNCC3)c12 |  |  |  |  | 
11 | 204 to 206 °C | CCCOc1cc2ccccc2c2c(=O)c(-c3ccc(OC)cc3)c(C)[nH]c12 |  |  |  |  | 

Continued, compound first:

Row | SMILES | melting point | activity at 0.01 µg/mL [1] | activity at 0.03 µg/mL [1] | activity at 0.1 µg/mL [1] | activity at 0.3 µg/mL [1] | activity at 1 µg/mL [1]
12 | CCCOc1ccc(F)c2c(=O)c(-c3ccc(OC)cc3)cn(CCC(=O)OCCN3CCN(C)CC3)c12.Cl.Cl | 150 to 152 °C |  |  |  |  | 
13 | CCCOc1ccc(F)c2c(=O)c(-c3ccc(OC)cc3)cn(CCS(=O)(=O)CCCN3CCN(C)CC3)c12.Cl.Cl | 72 to 74 °C |  |  |  |  | 
14 | CCCOc1ccc(F)c2c(=O)c(-c3ccc(OC)cc3)c(CN3CCN(c4ccccn4)CC3)[nH]c12 | 211 to 212 °C |  |  |  |  | 
15 | CCCOc1ccc(F)c2c(=O)c(-c3ccc(OC)cc3)cn(COC(=O)c3ccc(OP(=O)([O-])[O-])cc3)c12.[Na+].[Na+] | 205 to 207 °C |  |  |  |  | 
16 | CCCOc1cc2ccccc2c2c(=O)c(-c3ccsc3)cn(C)c12 [Example 7, 4-methyl-5-propoxy-2-thiophen-3-yl-4H-benzo[f]quinolin-1-one] |  | 66% | 71% | 78% | 80% | 75%
17 | CCCOc1cc2c(c3c(=O)c(-c4ccsc4)c[nH]c13)CCC2 [Example 12, 5-propoxy-8-thiophen-3-yl-1,2,3,6-tetrahydro-6-aza-cyclopenta[a]naphthalen-9-one] |  | 80% | 74% | 83% | 82% | 68%
18 | CCCOc1cc2c(c3c(=O)c(-c4ccc(OC)cc4)cn(COP(=O)(O)O)c13)OCCC2 [Example 36, [3-(4-methoxyphenyl)-4-oxo-10-propoxy-7,8-dihydro-4H,6H-5-oxa-1-aza-phenanthren-1-ylmethyl]monophosphate disodium salt] |  | 69% | 67% | 86% | 90% | 89%
19 | CCCOc1cc2c(c3c(=O)c(-c4ccc(OC)cc4)c(C)[nH]c13)OCC2 [Example 48, 8-(4-methoxyphenyl)-7-methyl-5-propoxy-3,6-dihydro-2H-flo[2,3-f]quinolin-9-one] |  | 60% | 81% | 92% | 93% | 80%
20 | COc1ccc(-c2c[nH]c3c4c(cc(C)c3c2=O)CCO4)cc1 [Example 57, 7-(4-methoxyphenyl)-5-methyl-2,3-dihydro-9H-flo[3,2-h]quinolin-6-one] |  | 64% | 65% | 68% | 74% | 65%
21 | CCCOc1cc2cnccc2c2c(=O)c(-c3ccc(OC)cc3)cn(CC(=O)NCCN3CCOCC3)c12 [Example 69, 2-[9-(4-methoxyphenyl)-10-oxo-6-propoxy-10H-[3,7]phenanthrolin-7-yl]-N-(2-morpholin-4-ylethyl)acetamide] |  | 78% | 64% | 68% | 67% | 65%
22 | COc1ccc(-c2c[nH]c3c(OCC(=O)NCCN4CCOCC4)ccc(F)c3c2=O)cc1 [Example 139, 2-[5-fluoro-3-(4-methoxyphenyl)-4-oxo-1,4-dihydro-quinolin-8-yloxy]-N-(2-morpholin-4-ylethyl)acetamide] |  | 53% | 58% | 57% | 60% | 55%
23 | CCCOc1ccc(F)c2c(=O)c(-c3ccc(C(=O)N4CCC(N5CCOCC5)CC4)cc3)c[nH]c12 [Example 163, 5-fluoro-3-[4-(4-morpholin-4-yl-piperidine-1-carbonyl)phenyl]-8-propoxy-1H-quinolin-4-one] |  | 61% | 61% | 63% | 60% | 63%
24 | CCCOc1ccc(F)c2c(=O)c(-c3ccc(OC)cc3)c(C(=O)NCCN3CCOCC3)[nH]c12 [Example 171, 5-fluoro-3-(4-methoxyphenyl)-4-oxo-8-propoxy-1,4-dihydroquinoline-2-carboxy-[2-(morpholin-4-yl)ethyl]amide] |  | 61% | 61% | 65% | 67% | 68%
25 | CCCOc1ccc(F)c2c(=O)c(-c3ccc(OC)cc3)cn(COP(=O)(O)O)c12 [Example 212, [5-fluoro-3-(4-methoxyphenyl)-4-oxo-8-propoxy-4H-quinolin-1-ylmethyl]monophosphate disodium salt] |  | 46% | 62% | 63% | 70% | 72%
26 | CCCOc1ccc(F)c2c(=O)c(-c3cnn(C)c3)cn(COP(=O)(O)O)c12 [Example 222, [5-fluoro-3-(1-methyl-1H-pyrazol-4-yl)-4-oxo-8-propoxy-4H-quinolin-1-ylmethyl]monophosphate disodium salt] |  | 59% | 64% | 66% | 62% | 73%
